“And” between values parts separate entries of the source, which are not always exact repeats. Equal values may be shown once.
What was measured:
Format in all cases: cell-based, human
AGS cells [1] = test: Seahorse XF OCR, ECAR and energy map
Experimental: (§1) Oxygen Consumption Rate (OCR), Extra Cellular Acidification Rate (ECAR) and Energy map measurements. Cells were plated in XF HS Miniplates (Seahorse Bioscience) at a cellular density of 1 × 10^4 cells/well and incubated overnight. […] After an OCR baseline measurement, the minimum oxygen consumption was determined by adding 1.5 µM oligomycin (O) and the maximal respiration rate was assessed by adding 1 µM carbonyl cyanide p-trifluoro methoxyphenylhydrazone (FCCP, F). At the end of the experiment, the non-mitochondrial oxygen consumption was evaluated by adding both 0.5 µM rotenone (R) and antimycin (A). Experiments were run in a XF HS Mini analyzer (Seahorse Agilent), and raw data were normalized to total protein using a BCA protein assay kit (Cat. no. 23225, Thermo Scientific).

MKN45 cells [2] = test: Seahorse XF OCR, ECAR and energy map; set-up: Basal resp. / Maximal resp. / SRC: unit not given here
Experimental: as §1

PANC1 cells [3] = test: Seahorse XF OCR, ECAR and energy map; set-up: Basal resp. / Maximal resp. / SRC: unit not given here
Experimental: as §1

AGS cells [4] = test: ATP determination assay (bioluminescence); settings: replicates
Experimental: (§2) ATP determination assay. […] The analysis was performed using the ATP Bioluminescense Assay Kit CLS II (Cat. no. 11699695001, Roche) according to the manufacturer’s instructions. […] Data were normalized to total protein using the BCA protein assay kit (Thermo Scientific).

MKN45 cells [5] = test: ATP determination assay (bioluminescence); settings: replicates
Experimental: as §2

PANC1 cells [6] = test: ATP determination assay (bioluminescence); settings: replicates
Experimental: as §2

AGS cells [7] = test: Lactate production assay; settings: replicates
Experimental: (§3) Lactate production assay. […] Proteins were removed from 50 μL of the medium by adding 100 μL of 8% Percloric Acid and 40% EtOH at 4 °C, and centrifuging at 2 × 10^4 g for 10 min at 4 °C. The supernatants were then frozen until the lactate in 15 μL of each sample, or lactate standard, was measured mixed with 150 μl of assay buffer (0.5 M glycine [pH 9.5], 0.2 M Hydrazine, 3.4 mM EDTA), 100 μl of H20, 5 μL of 1100 U/mL LDH (Roche) and 30 μL of 15 mM NAD + . NADH production was evaluated by measuring absorbance at 340 nm in a multiplate reader (Synergy HT, Biotek) and it was proportional to the lactic acid concentration in the sample after a 2 h incubation. The lactate concentration was normalized to the total amount of protein measured with the Micro BCA Protein Assay Kit (Thermo Scientific). Assays were performed in triplicate in three independent experiments.

MKN45 cells [8] = test: Lactate production assay; settings: replicates
Experimental: as §3

PANC1 cells [9] = test: Lactate production assay; settings: replicates
Experimental: as §3

## CC(C)[NH][Pt@SP1]([I])([I])[NH]C(C)C [I6, cis-[PtI2(isopropylamine)2]]
AGS cells [1]; AGS (with I5)
  ECAR, Mean (energy map): 23.74 mpH/min/absorbance
  OCR, Mean (energy map): 42.84 pmol/min/absorbance
AGS cells [1]; AGS (with I6)
  ECAR (energy map): 45.46 mpH/min/absorbance
  ECAR, Mean (energy map): 48.0093 mpH/min/absorbance
  OCR (energy map): 48.01 pmol/min/absorbance
  OCR, Mean (energy map): 45.4641 pmol/min/absorbance
AGS cells [1]; AGS, IC50 24 h
  effect on ECAR: no apparent effect
AGS cells [1]; AGS, IC50 24 h, time 1.53 min (I5) / 1.53 min (I6)
  OCR: 30.1319 pmoles/min/µg protein and 31.3797 pmoles/min/µg protein and 53.7109 pmoles/min/µg protein
AGS cells [1]; AGS, IC50 24 h, time 8.04 min (I5) / 8.02 min (I6)
  OCR: 24.9329 pmoles/min/µg protein and 27.5046 pmoles/min/µg protein and 48.0298 pmoles/min/µg protein
AGS cells [1]; AGS, IC50 24 h, time 14.54 min (I5) / 14.51 min (I6)
  OCR: 26.4797 pmoles/min/µg protein and 27.4562 pmoles/min/µg protein and 48.9415 pmoles/min/µg protein
AGS cells [1]; AGS, IC50 24 h, time 21.13 min (I5) / 21.08 min (I6)
  OCR: 22.9934 pmoles/min/µg protein and 21.9038 pmoles/min/µg protein and 30.7096 pmoles/min/µg protein
AGS cells [1]; AGS, IC50 24 h, time 27.59 min (I5) / 27.57 min (I6)
  OCR: 20.5189 pmoles/min/µg protein and 20.6073 pmoles/min/µg protein and 30.1901 pmoles/min/µg protein
AGS cells [1]; AGS, IC50 24 h, time 34.07 min (I5) / 34.06 min (I6)
  OCR: 21.4481 pmoles/min/µg protein and 20.5528 pmoles/min/µg protein and 31.2982 pmoles/min/µg protein
AGS cells [1]; AGS, IC50 24 h, time 60.15 min (I5) / 60.16 min (I6)
  OCR: 12.0701 pmoles/min/µg protein and 11.1961 pmoles/min/µg protein and 18.1823 pmoles/min/µg protein
AGS cells [1]; AGS, IC50 24 h, time 66.63 min (I5) / 66.65 min (I6)
  OCR: 12.0579 pmoles/min/µg protein and 11.0677 pmoles/min/µg protein and 17.3668 pmoles/min/µg protein
AGS cells [1]; AGS, IC50 24 h, time 73.12 min (I5) / 73.14 min (I6)
  OCR: 11.7846 pmoles/min/µg protein and 9.533 pmoles/min/µg protein and 17.3382 pmoles/min/µg protein
MKN45 cells [2]; MKN45 (with I5)
  ECAR, Mean (energy map): 17.85 mpH/min/absorbance
  OCR, Mean (energy map): 73.36 pmol/min/absorbance
MKN45 cells [2]; MKN45 (with I6)
  ECAR (energy map): 73.12 mpH/min/absorbance
  ECAR, Mean (energy map): 230.729 mpH/min/absorbance
  OCR (energy map): 230.7 pmol/min/absorbance
  OCR, Mean (energy map): 73.1182 pmol/min/absorbance
MKN45 cells [2]; MKN45, IC50 24 h
  ATP-product. coupled resp.: 104.06 and 161.5 and 167.13
  Basal resp.: 127.94 and 199.95 and 209.1
  Maximal resp.: 239.39 and 365.62 and 377.71
  SRC: 111.45 and 165.66 and 168.61
  effect on ECAR: no apparent effect
MKN45 cells [2]; MKN45, IC50 24 h, time 1.53 min (I5) / 1.53 min (I6)
  OCR: 147.857 pmoles/min/µg protein and 218.375 pmoles/min/µg protein and 227.071 pmoles/min/µg protein
MKN45 cells [2]; MKN45, IC50 24 h, time 8.04 min (I5) / 8.03 min (I6)
  OCR: 138.707 pmoles/min/µg protein and 201.479 pmoles/min/µg protein and 205.427 pmoles/min/µg protein
MKN45 cells [2]; MKN45, IC50 24 h, time 14.51 min (I5) / 14.5 min (I6)
  OCR: 135.932 pmoles/min/µg protein and 195.066 pmoles/min/µg protein and 199.064 pmoles/min/µg protein
MKN45 cells [2]; MKN45, IC50 24 h, time 21.06 min (I5) / 21.09 min (I6)
  OCR: 69.6082 pmoles/min/µg protein and 82.0209 pmoles/min/µg protein and 78.1047 pmoles/min/µg protein
MKN45 cells [2]; MKN45, IC50 24 h, time 27.57 min (I5) / 27.59 min (I6)
  OCR: 57.4221 pmoles/min/µg protein and 74.9291 pmoles/min/µg protein and 73.3602 pmoles/min/µg protein
MKN45 cells [2]; MKN45, IC50 24 h, time 34.08 min (I5) / 34.07 min (I6)
  OCR: 57.8854 pmoles/min/µg protein and 73.9423 pmoles/min/µg protein and 73.7207 pmoles/min/µg protein
MKN45 cells [2]; MKN45, IC50 24 h, time 40.66 min (I5) / 40.62 min (I6)
  OCR: 219.523 pmoles/min/µg protein and 319.315 pmoles/min/µg protein and 325.525 pmoles/min/µg protein
MKN45 cells [2]; MKN45, IC50 24 h, time 53.68 min (I5) / 53.58 min (I6)
  OCR: 193.975 pmoles/min/µg protein and 265.77 pmoles/min/µg protein and 274.483 pmoles/min/µg protein
MKN45 cells [2]; MKN45, IC50 24 h, time 60.27 min (I5) / 60.14 min (I6)
  OCR: 39.9791 pmoles/min/µg protein and 45.1028 pmoles/min/µg protein and 42.2414 pmoles/min/µg protein
MKN45 cells [2]; MKN45, IC50 24 h, time 66.75 min (I5) / 66.62 min (I6)
  OCR: 39.1246 pmoles/min/µg protein and 45.4375 pmoles/min/µg protein and 44.5027 pmoles/min/µg protein
MKN45 cells [2]; MKN45, IC50 24 h, time 73.23 min (I5) / 73.1 min (I6)
  OCR: 38.1003 pmoles/min/µg protein and 46.0211 pmoles/min/µg protein and 46.1344 pmoles/min/µg protein
PANC1 cells [3]; PANC1 (with I5)
  ECAR, Mean (energy map): 7.18 mpH/min/absorbance
  OCR, Mean (energy map): 8.75 pmol/min/absorbance
PANC1 cells [3]; PANC1 (with I6)
  ECAR (energy map): 32.52 mpH/min/absorbance
  ECAR, Mean (energy map): 146.969 mpH/min/absorbance
  OCR (energy map): 147 pmol/min/absorbance
  OCR, Mean (energy map): 32.5207 pmol/min/absorbance
PANC1 cells [3]; PANC1, IC50 24 h
  ATP-product. coupled resp.: 76.46 and 74.62 and 73.2
  Basal resp.: 102.88 and 97.93 and 95.39
  Maximal resp.: 174.57 and 152.73 and 164.59
  SRC: 71.69 and 54.8 and 69.2
  effect on ECAR: no apparent effect
PANC1 cells [3]; PANC1, IC50 24 h, time 1.53 min (I5) / 1.53 min (I6)
  OCR: 159.562 pmoles/min/µg protein and 146.086 pmoles/min/µg protein and 145.09 pmoles/min/µg protein
PANC1 cells [3]; PANC1, IC50 24 h, time 8.03 min (I5) / 8.01 min (I6)
  OCR: 147.434 pmoles/min/µg protein and 135.357 pmoles/min/µg protein and 133.103 pmoles/min/µg protein
PANC1 cells [3]; PANC1, IC50 24 h, time 14.5 min (I5) / 14.5 min (I6)
  OCR: 143.038 pmoles/min/µg protein and 132.495 pmoles/min/µg protein and 129.978 pmoles/min/µg protein
PANC1 cells [3]; PANC1, IC50 24 h, time 21.08 min (I5) / 21.07 min (I6)
  OCR: 66.5745 pmoles/min/µg protein and 57.8765 pmoles/min/µg protein and 56.7739 pmoles/min/µg protein
PANC1 cells [3]; PANC1, IC50 24 h, time 27.58 min (I5) / 27.55 min (I6)
  OCR: 66.0035 pmoles/min/µg protein and 58.3571 pmoles/min/µg protein and 57.0179 pmoles/min/µg protein
PANC1 cells [3]; PANC1, IC50 24 h, time 34.08 min (I5) / 34.04 min (I6)
  OCR: 69.58 pmoles/min/µg protein and 62.2166 pmoles/min/µg protein and 61.4483 pmoles/min/µg protein
PANC1 cells [3]; PANC1, IC50 24 h, time 40.66 min (I5) / 40.6 min (I6)
  OCR: 214.725 pmoles/min/µg protein and 187.294 pmoles/min/µg protein and 199.178 pmoles/min/µg protein
PANC1 cells [3]; PANC1, IC50 24 h, time 47.17 min (I5) / 47.09 min (I6)
  OCR: 200.494 pmoles/min/µg protein and 175.489 pmoles/min/µg protein and 184.522 pmoles/min/µg protein
PANC1 cells [3]; PANC1, IC50 24 h, time 53.68 min (I5) / 53.58 min (I6)
  OCR: 196.779 pmoles/min/µg protein and 170.973 pmoles/min/µg protein and 177.854 pmoles/min/µg protein
PANC1 cells [3]; PANC1, IC50 24 h, time 60.22 min (I5) / 60.14 min (I6)
  OCR: 40.9467 pmoles/min/µg protein and 34.6667 pmoles/min/µg protein and 34.4666 pmoles/min/µg protein
PANC1 cells [3]; PANC1, IC50 24 h, time 66.71 min (I5) / 66.63 min (I6)
  OCR: 41.5272 pmoles/min/µg protein and 35.8152 pmoles/min/µg protein and 35.5577 pmoles/min/µg protein
PANC1 cells [3]; PANC1, IC50 24 h, time 73.19 min (I5) / 73.15 min (I6)
  OCR: 40.1567 pmoles/min/µg protein and 34.5626 pmoles/min/µg protein and 34.5904 pmoles/min/µg protein
AGS cells [4]
  ATP assay: 0.001 nmoles ATP/mg prot and 0.003 nmoles ATP/mg prot and 0.01 nmoles ATP/mg prot and 0 nmoles ATP/mg prot and 0.005 nmoles ATP/mg prot and 0.002 nmoles ATP/mg prot
MKN45 cells [5]
  ATP assay: 5246 nmoles ATP/mg prot and 3320.9 nmoles ATP/mg prot and 18883.3 nmoles ATP/mg prot and 23272 nmoles ATP/mg prot and 3325.73 nmoles ATP/mg prot and 3863.84 nmoles ATP/mg prot and 4434 nmoles ATP/mg prot and 3684.47 nmoles ATP/mg prot and 4201.47 nmoles ATP/mg prot
PANC1 cells [6]
  ATP assay: 7880 nmoles ATP/mg prot and 13332.3 nmoles ATP/mg prot and 3956 nmoles ATP/mg prot and 3277.42 nmoles ATP/mg prot and 6180.37 nmoles ATP/mg prot and 5189.49 nmoles ATP/mg prot and 6520 nmoles ATP/mg prot and 7744.41 nmoles ATP/mg prot and 6743.81 nmoles ATP/mg prot
AGS cells [7]
  lactate assay: 3.22 Lactate mM/mg prot and 1.52 Lactate mM/mg prot and 3.74 Lactate mM/mg prot and 3.2668 Lactate mM/mg prot and 2.67 Lactate mM/mg prot and 5.511 Lactate mM/mg prot and 0.01 Lactate mM/mg prot and 0.02 Lactate mM/mg prot and 0.03 Lactate mM/mg prot
MKN45 cells [8]
  lactate assay: 3.98 Lactate mM/mg prot and 8.05 Lactate mM/mg prot and 7.53 Lactate mM/mg prot and 3.819 Lactate mM/mg prot and 1.91 Lactate mM/mg prot and 4.092 Lactate mM/mg prot and 2.56 Lactate mM/mg prot and 2.5 Lactate mM/mg prot and 2.54 Lactate mM/mg prot
PANC1 cells [9]
  lactate assay: 11.33 Lactate mM/mg prot and 12.9 Lactate mM/mg prot and 10.14 Lactate mM/mg prot and 5.296 Lactate mM/mg prot and 5.829 Lactate mM/mg prot and 4.94 Lactate mM/mg prot and 4.32 Lactate mM/mg prot and 4.21 Lactate mM/mg prot and 4.26 Lactate mM/mg prot
